Assay results: patent US20120004235A1, “METHODS TO TREAT CANCER” (Rutgers, The State University of New Jersey, priority 2009, published 2012)

How the values were obtained:
[1] = system: Human H1299 Lung Tumor Xenograft Model; experiment: Test D xenograft, Compound 2 free base; conditions: qod × 3 for 2 cycles
[2] = In vivo pharmacokinetics (Example 22); conditions: in vivo in mouse, rat and dog
Description: The in vitro and in vivo activity of compound 2 and two of its metabolites (compound 5 and compound 6) were explored and compared with the activity of camptothecin Top1 inhibitors. […] In human HCT-116 colon ca, HT-29 colon ca and NCI-H460 NSCLC cells the concentration response for compound 2, compound 5 and compound 6 were the same. […] Compound 2 was administered intravenously on a QODx3 schedule for 2 cycles.

[3] = system: RPMI 8226 (multiple myeloma) human tumor cell line; experiment: Cell TiterGlo cell growth inhibition (Test C); assay type: cell-based; conditions: 72 hours exposure, ATP content luminescence
Description: The RPMI 8226 (multiple myeloma) human tumor cell line was exposed to Compound 2 (free base) (or simply referred to herein throughout as “Compound 2”) at concentrations covering a […] (0.1 nM -100 nM) with an exposure time of 72 hours and experimental endpoint of cell growth inhibition as determined by a Cell TiterGlo luminescence assay (Promega) for ATP content. At least two independent experiments were conducted. The results were plotted and trend lines were graphed. […] Exposure to Compound 2 produced exponential killing of cells in a manner consistent with potent inhibition of a critical molecular target.

[4] = system: HCT-116 human colon tumor xenograft; experiment: Compound 2 after oral administration vs. the HCT-116 xenograft model
[5] = system: KB3-1 HeLa Human Cervical Carcinoma; experiment: Human tumor cell CFU assay (Test B); assay type: cell-based; conditions: Homo sapiens, colony formation, continuous exposure 7-9 days
Description: (§1) For human tumor cell CFU assays, the cell lines which grow as monolayers, MDA-MB-231, HCT116, HT29, NCI-H460, KB3-1 and KBV-1 were grown in RPMI medium (Invitrogen/Gibco, Grand Island, N.Y.) supplemented with 5% fetal bovine serum (Invitrogen/Gibco, Grand Island, NY). The RPMI-8226 cell line grows in suspension.
(§2) For experiments, human tumor cells (1 103) were plated in 6-well plates in medium supplemented with 5% or 10% fetal bovine serum. The compounds were tested in concentrations over the range from 0.01 to 100 nanomolar in half-log intervals covering […] along with untreated control wells. In later experiments some cases the concentration ranges were refined to focus on the region of interest in the response curves. Each compound concentration was tested in duplicate wells. Cultures were exposed to the compounds continuously for 7-9 days at 37° C. in a humidified atmosphere of 5% carbon dioxide balance air. Each experiment was performed three independent times. Colonies were defined as clusters containing 30 or more cells.
(§3) For the monolayer cultures, colonies were visualized by staining with a preformulated crystal violet solution (Fisher Cat #291-472) which contained 0.41% crystal violet, 12% ethanol balance deionized water. To visualize the colonies, the medium was removed by aspiration; the monolayer was rinsed once with phosphate buffered saline which was removed by aspiration. Three drops of crystal violet solution was added to each well and the 6-well plate was rotated so that the crystal violet solution covered the surface area of each well. After 5 minutes exposure time, the wells were rinsed twice with phosphate buffered saline and the colonies were visible.
(§4) The values were expressed as the mean values with lower and upper 95% confidence intervals in nanomolar concentrations.

[6] = system: HCT116 Human Colon Carcinoma; experiment: Human tumor cell CFU assay (Test B); assay type: cell-based; conditions: Homo sapiens, HCT-116, colony formation, continuous exposure 7-9 days
Description: as §1, §2, §3, §4

[7] = system: KBH5.0 BCRP+ KB3-1 Subline; experiment: Human tumor cell CFU assay (Test B); assay type: cell-based; conditions: Homo sapiens, KB 3-1, colony formation, continuous exposure 7-9 days
Description: as §1, §2, §3, §4

[8] = system: HT29 Human Colon Carcinoma; experiment: Human tumor cell CFU assay (Test B); assay type: cell-based; conditions: Homo sapiens, HT-29, colony formation, continuous exposure 7-9 days
Description: as §1, §2, §3, §4

[9] = system: KB-V1 MDR1+ KB3-1 Subline; experiment: Human tumor cell CFU assay (Test B); assay type: cell-based; conditions: Homo sapiens; colony formation, continuous exposure 7-9 days
Description: as §1, §2, §3, §4

[10] = system: MDA-MB-231 Human Breast Carcinoma; experiment: Human tumor cell CFU assay (Test B); assay type: cell-based; conditions: Homo sapiens, MDA-MB-231, colony formation, continuous exposure 7-9 days
Description: as §1, §2, §3, §4

[11] = system: NCI-H460 Human Non-small Cell Lung Carcinoma; experiment: Human tumor cell CFU assay (Test B); assay type: cell-based; conditions: Homo sapiens, NCI-H460, colony formation, continuous exposure 7-9 days
Description: as §1, §2, §3, §4

[12] = system: Human NCI-H292 Lung Tumor Xenograft Model; experiment: Test D xenograft, Compound 2 free base; conditions: for Increase in Life Span (ILS) / Tumor Growth Delay T-C / Tumor Growth Inhibition T/C (tumor volume): qod × 3 for 2 cycles
[13] = 1.36 mg/kg/day PO, qod×3 weekly for 2 cycles
[14] = 2.72 mg/kg/day PO, qod×3 weekly for 2 cycles
[15] = PO dosages (0.68, 1.36, 2.72 mg/kg/day, qod×3 weekly for 2 cycles)
[16] = read-out: IC90 Values (95% Lower and Upper Confidence Intervals)
[17] = read-out: IC50 Values (95% Lower and Upper Confidence Intervals)

In the case of `CNCCn1c(=O)c2cc(OC)c(OC)cc2c2cnc3cc4c(cc3c21)OCO4` [Compound 2, 8,9-dimethoxy-2,3-methylenedioxy-5-[2-(N-methylamino)ethyl]-5H-dibenzo[c,h]1,6-naphthyridin-6-one], the “Increase in Life Span (ILS)” value ([1]; 1 mg/kg/day IV) is reported as 1.7x, the “Tumor Growth Delay T-C” value ([1]; 1 mg/kg/day IV) is reported as 20 days and the “Tumor Growth Inhibition T/C (tumor volume)” value (from here on “Tumor Growth Inhibition T/C”) ([1]; 1 mg/kg/day IV) is reported as 22.6%. The “Increase in Life Span (ILS)” value ([1]; 1.36 mg/kg/day IV) was 1.8x, the “Tumor Growth Delay T-C” value ([1]; 1.36 mg/kg/day IV) was 24 days and the “Tumor Growth Inhibition T/C” value ([1]; 1.36 mg/kg/day IV) was 13.2%. The “Increase in Life Span (ILS)” value ([1]; 1.7 mg/kg/day IV) was 2.1x, the “Tumor Growth Delay T-C” value ([1]; 1.7 mg/kg/day IV) was 34 days and the “Tumor Growth Inhibition T/C” value ([1]; 1.7 mg/kg/day IV) was 8.7%. For the same molecule, the clearance [2] was “low-to-moderate clearance”, the volume of distribution [2] was “large volume of distribution” and the IC50 ([3]; read-out: IC50 concentration) was 3.4 nM. The IC90 ([3]; read-out: IC90 concentration) was 30 nM, the TGD [4, 13] was “no effect on TGD” and the “TGI (T/C)” value [4, 13] was 57.6%. The ILS [4, 14] was 1.5 fold, the “TGD (T-C)” value [4, 14] was 18 days and the toxic deaths [4, 15] was “no toxic deaths”. It also gave a weight loss [4, 15] of under 20%, an IC50 [5] of 1.7 nM and an IC90 [5, 16] of 7.7 nM. For the same molecule, the IC50 [6, 17] was 0.9 nM, the IC90 [6, 16] was 2.8 nM and the IC90 [7] was 3 nM. The IC50 [7, 17] was 1 nM, the IC50 [8, 17] was 0.15 nM and the IC90 [8, 16] was 0.9 nM. For the same molecule, the IC50 [9] was 2 nM, the IC90 [9] was 8.3 nM and the IC50 [10, 17] was 0.2 nM. It also gave an IC90 [10, 16] of 0.7 nM, an IC50 [11, 17] of 1.2 nM and an IC90 [11, 16] of 5 nM. For the same molecule, the “Increase in Life Span (ILS)” value ([12]; 1 mg/kg/day IV) was 1.5x, the “Tumor Growth Delay T-C” value ([12]; 1 mg/kg/day IV) was 18 days and the “Tumor Growth Inhibition T/C” value ([12]; 1 mg/kg/day IV) was 29.4%. For the same molecule, the “Increase in Life Span (ILS)” value ([12]; 1.36 mg/kg/day IV) was 1.6x, the “Tumor Growth Delay T-C” value ([12]; 1.36 mg/kg/day IV) was 21 days and the “Tumor Growth Inhibition T/C” value ([12]; 1.36 mg/kg/day IV) was 25.2%. For the same molecule, the “Increase in Life Span (ILS)” value ([12]; 1.7 mg/kg/day IV) was 1.6x, the “Tumor Growth Delay T-C” value ([12]; 1.7 mg/kg/day IV) was 21 days and the “Tumor Growth Inhibition T/C” value ([12]; 1.7 mg/kg/day IV) was 15.2%. The “maximum body weight loss” value ([12]; high dosage, IV QODx3 for 2 cycles) was 20.9%.
